The source made the active and inactive calls.
Columns and labels:
[1] = biological target: T1, Tyrosyl-DNA phosphodiesterase 2 (Homo sapiens, UniProt O95551); test: human TDP2 enzyme inhibitors, dose response, biochemical, epi absorbance, IC50 (AID 743297)
T1 sequence (O95551 whole entry): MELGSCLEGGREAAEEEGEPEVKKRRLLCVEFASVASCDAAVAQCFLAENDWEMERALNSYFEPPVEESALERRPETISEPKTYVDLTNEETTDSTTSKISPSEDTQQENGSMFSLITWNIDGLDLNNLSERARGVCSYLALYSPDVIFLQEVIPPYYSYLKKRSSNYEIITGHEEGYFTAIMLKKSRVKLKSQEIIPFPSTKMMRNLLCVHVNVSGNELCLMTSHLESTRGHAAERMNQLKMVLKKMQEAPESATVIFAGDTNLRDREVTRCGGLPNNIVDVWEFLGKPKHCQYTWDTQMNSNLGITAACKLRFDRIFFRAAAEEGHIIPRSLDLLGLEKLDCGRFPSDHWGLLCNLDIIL

[2] = biological target: T2, Caspase-6 (Homo sapiens, UniProt P55212); test: human caspase-6 inhibitors, dose response, biochemical, VEID-R110 fluorescence, cherry-pick (AID 720632)
T2 sequence (P55212 whole entry): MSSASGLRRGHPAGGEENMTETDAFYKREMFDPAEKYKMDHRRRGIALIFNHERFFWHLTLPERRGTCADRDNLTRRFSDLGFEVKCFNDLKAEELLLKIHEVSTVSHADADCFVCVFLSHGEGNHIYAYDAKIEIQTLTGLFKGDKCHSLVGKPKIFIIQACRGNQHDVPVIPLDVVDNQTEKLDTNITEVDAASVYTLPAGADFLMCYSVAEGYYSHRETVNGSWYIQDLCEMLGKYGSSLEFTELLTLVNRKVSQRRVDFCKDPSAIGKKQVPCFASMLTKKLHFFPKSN

[3] = biological target: High affinity nerve growth factor receptor (Homo sapiens, UniProt P04629); format: functional;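 note: NTRK1 tested as one member of a kinome-wide profiling panel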
Sequence of High affinity nerve growth factor receptor (P04629 whole entry): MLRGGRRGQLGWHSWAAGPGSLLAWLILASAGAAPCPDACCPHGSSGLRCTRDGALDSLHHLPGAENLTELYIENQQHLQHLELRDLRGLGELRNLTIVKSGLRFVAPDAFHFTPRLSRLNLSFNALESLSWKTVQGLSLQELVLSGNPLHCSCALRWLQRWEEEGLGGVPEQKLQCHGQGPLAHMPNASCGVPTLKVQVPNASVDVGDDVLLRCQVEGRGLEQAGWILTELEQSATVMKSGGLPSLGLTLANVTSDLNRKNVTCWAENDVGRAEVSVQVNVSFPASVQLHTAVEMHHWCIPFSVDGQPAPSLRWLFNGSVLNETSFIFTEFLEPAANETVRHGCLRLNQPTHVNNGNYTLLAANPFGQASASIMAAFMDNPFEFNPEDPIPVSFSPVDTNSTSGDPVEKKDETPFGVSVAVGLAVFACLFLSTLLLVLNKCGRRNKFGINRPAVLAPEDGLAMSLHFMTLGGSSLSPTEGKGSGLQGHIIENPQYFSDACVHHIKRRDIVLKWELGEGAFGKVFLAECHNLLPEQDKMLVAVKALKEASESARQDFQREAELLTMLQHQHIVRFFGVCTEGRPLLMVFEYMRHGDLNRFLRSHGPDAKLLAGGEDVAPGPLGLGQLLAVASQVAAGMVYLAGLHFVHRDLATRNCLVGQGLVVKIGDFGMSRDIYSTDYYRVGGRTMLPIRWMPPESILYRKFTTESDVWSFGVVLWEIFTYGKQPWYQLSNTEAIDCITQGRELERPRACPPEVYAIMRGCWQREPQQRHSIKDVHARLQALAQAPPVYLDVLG

[4] = biological target: Tyrosine-protein kinase receptor TYRO3 (Homo sapiens, UniProt Q06418); format: functional;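 note: TYRO3 value obtained as one member of a kinome-wide profiling panel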
Sequence of Tyrosine-protein kinase receptor TYRO3 (Q06418 whole entry): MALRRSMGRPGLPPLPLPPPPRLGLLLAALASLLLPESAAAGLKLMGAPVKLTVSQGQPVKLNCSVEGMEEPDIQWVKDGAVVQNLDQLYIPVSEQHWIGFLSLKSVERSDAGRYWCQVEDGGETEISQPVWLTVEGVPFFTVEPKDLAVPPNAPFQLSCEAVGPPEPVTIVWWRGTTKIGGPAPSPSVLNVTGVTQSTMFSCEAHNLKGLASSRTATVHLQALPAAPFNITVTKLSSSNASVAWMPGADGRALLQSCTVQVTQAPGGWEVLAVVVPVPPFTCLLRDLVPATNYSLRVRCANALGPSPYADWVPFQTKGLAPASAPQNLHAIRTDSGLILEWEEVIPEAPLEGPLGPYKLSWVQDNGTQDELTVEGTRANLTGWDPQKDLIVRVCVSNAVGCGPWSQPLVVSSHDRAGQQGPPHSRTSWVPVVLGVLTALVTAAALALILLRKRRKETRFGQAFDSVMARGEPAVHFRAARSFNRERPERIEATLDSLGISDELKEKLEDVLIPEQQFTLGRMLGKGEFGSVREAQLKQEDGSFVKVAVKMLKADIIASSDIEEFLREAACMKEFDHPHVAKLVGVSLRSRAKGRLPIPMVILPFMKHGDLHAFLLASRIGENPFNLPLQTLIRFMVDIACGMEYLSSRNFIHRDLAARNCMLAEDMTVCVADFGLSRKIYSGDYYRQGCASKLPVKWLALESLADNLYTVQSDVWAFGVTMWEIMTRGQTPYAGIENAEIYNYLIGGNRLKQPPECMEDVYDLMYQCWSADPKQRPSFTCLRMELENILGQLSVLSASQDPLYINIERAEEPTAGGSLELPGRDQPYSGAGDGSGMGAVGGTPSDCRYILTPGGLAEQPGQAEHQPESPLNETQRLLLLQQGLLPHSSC

[5] = biological target: Vascular endothelial growth factor receptor 2 (Homo sapiens, UniProt P35968); format: functional
Sequence of Vascular endothelial growth factor receptor 2 (P35968 whole entry): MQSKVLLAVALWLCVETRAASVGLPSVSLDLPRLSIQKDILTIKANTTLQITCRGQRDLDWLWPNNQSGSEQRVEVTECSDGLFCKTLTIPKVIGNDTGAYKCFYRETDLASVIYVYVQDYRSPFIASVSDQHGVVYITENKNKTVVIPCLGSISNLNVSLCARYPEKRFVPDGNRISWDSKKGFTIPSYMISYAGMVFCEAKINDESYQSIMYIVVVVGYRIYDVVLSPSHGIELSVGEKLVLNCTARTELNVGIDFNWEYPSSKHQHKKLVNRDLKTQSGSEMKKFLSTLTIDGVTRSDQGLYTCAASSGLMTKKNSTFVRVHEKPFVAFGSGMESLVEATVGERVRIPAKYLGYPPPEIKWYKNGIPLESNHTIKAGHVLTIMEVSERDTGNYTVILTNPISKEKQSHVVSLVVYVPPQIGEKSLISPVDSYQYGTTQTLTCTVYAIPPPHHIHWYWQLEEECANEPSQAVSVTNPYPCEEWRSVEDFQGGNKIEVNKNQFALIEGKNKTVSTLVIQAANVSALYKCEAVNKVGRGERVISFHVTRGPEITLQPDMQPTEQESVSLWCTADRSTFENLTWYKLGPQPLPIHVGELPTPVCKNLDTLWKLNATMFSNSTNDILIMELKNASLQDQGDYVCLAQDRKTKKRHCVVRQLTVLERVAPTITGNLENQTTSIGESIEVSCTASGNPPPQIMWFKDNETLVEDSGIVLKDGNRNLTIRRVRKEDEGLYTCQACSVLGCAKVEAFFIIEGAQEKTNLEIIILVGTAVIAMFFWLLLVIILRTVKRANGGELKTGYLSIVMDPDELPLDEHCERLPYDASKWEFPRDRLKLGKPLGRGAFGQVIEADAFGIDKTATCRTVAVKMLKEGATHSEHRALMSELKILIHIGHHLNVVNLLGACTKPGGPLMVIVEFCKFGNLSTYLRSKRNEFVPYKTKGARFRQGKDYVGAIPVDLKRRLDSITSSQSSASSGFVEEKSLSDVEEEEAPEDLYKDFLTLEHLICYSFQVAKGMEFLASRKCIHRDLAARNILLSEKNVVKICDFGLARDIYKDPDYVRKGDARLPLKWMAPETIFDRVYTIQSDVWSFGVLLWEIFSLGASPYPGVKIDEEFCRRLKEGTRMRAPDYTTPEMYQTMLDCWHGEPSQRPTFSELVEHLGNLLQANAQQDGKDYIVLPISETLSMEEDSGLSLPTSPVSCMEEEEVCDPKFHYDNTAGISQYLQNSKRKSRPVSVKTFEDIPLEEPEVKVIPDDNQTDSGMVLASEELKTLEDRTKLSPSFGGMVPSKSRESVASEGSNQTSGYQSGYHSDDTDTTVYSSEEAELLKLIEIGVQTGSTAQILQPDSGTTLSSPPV

[6] = biological target: T3, Receptor-type tyrosine-protein kinase FLT3 (Homo sapiens, UniProt P36888); format: functional;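 note: FLT3 was tested as one member of a kinome-wide kinase panel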
T3 sequence (P36888 whole entry): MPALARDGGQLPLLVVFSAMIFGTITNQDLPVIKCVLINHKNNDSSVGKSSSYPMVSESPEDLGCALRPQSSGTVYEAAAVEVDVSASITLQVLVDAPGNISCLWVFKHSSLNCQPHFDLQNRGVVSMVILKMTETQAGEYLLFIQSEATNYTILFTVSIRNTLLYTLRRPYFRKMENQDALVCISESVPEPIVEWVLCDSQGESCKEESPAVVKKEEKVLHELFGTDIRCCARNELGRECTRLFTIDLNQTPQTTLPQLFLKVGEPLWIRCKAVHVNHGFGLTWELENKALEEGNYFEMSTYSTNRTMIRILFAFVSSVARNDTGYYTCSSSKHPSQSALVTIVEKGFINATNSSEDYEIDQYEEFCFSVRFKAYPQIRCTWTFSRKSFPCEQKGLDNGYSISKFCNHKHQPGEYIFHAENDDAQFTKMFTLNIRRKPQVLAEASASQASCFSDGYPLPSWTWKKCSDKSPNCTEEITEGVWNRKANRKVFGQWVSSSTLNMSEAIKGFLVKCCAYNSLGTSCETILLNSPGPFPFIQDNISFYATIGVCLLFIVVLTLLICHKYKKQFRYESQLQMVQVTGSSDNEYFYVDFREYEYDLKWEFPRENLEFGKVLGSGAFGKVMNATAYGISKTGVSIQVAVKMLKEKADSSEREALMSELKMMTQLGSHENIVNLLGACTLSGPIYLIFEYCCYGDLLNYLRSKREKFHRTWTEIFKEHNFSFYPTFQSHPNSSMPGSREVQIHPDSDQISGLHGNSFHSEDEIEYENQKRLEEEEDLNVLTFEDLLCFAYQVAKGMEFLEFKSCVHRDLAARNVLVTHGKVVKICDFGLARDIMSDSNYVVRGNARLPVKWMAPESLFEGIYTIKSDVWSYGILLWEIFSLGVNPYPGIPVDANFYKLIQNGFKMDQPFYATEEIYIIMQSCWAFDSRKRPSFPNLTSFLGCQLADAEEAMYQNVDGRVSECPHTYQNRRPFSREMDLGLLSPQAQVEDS

[7] = biological target: Casein kinase I isoform alpha (Homo sapiens, UniProt P48729); format: functional
Sequence of Casein kinase I isoform alpha (P48729 whole entry, canonical isoform): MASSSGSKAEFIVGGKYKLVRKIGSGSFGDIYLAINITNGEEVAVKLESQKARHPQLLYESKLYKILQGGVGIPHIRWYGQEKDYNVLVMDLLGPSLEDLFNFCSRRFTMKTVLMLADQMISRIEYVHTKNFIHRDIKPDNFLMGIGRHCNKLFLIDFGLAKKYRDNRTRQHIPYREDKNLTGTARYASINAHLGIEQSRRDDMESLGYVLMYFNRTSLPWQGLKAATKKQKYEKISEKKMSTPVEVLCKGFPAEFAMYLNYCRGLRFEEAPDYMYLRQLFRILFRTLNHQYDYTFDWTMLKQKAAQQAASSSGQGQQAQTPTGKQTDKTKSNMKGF

[8] = biological target: Cyclin-dependent kinase 8 (Homo sapiens, UniProt P49336); test: Navigating the Kinome. Panel member name: CDK8; format: functional
Sequence of Cyclin-dependent kinase 8 (P49336 whole entry): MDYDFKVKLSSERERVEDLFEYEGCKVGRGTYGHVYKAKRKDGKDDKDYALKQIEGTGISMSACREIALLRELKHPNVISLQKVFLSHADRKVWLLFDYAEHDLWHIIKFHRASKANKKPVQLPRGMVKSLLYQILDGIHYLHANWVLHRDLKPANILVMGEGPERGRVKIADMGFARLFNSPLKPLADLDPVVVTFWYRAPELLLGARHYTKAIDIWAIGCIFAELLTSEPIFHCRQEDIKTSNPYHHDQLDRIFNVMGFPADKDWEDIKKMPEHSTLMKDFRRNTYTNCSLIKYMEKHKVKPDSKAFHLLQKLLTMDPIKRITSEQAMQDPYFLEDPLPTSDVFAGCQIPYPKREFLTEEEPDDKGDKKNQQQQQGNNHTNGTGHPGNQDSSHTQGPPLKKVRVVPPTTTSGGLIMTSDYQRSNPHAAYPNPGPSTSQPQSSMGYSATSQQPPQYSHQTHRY

[9] = biological target: Dual specificity protein kinase CLK2 (Homo sapiens, UniProt P49760); format: functional
Sequence of Dual specificity protein kinase CLK2 (P49760 whole entry): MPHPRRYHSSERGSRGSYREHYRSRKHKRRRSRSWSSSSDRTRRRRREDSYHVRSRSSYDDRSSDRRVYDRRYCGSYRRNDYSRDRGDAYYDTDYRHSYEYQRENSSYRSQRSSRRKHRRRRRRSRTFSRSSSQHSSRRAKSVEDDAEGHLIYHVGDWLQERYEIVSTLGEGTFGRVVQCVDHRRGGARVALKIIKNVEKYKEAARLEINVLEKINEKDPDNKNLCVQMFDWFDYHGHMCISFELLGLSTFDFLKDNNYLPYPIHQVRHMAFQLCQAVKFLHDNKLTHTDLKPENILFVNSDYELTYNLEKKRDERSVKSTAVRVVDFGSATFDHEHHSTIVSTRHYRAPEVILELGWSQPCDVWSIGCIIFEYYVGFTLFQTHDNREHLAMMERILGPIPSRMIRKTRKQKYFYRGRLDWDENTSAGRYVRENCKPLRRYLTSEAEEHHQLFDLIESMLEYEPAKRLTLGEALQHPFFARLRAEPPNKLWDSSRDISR

[10] = biological target: T4, Serine/threonine-protein kinase TBK1 (Homo sapiens, UniProt Q9UHD2); test: Navigating the Kinome. Panel member name: TBK1; format: functional
T4 sequence (Q9UHD2 whole entry): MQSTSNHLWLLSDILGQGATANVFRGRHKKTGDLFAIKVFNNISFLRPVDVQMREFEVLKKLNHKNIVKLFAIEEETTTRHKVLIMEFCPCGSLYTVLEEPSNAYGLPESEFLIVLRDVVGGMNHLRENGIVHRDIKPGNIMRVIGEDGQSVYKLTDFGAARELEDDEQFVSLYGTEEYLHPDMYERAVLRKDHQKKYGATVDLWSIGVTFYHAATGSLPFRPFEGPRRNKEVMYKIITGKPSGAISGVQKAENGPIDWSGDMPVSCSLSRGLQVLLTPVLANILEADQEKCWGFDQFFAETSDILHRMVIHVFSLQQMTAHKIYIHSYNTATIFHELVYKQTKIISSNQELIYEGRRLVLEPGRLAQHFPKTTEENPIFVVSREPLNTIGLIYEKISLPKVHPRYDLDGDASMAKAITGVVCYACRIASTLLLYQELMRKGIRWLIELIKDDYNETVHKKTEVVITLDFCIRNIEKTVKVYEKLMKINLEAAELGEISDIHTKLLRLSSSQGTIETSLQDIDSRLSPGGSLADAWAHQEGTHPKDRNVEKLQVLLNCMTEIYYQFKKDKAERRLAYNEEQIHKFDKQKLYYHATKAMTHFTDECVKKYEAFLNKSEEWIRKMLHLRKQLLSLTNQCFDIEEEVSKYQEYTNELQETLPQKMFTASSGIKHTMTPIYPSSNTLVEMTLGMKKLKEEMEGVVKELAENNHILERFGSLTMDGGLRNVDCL

[11] = biological target: Tyrosine-protein kinase Fyn (Homo sapiens, UniProt P06241); format: functional
Sequence of Tyrosine-protein kinase Fyn (P06241 whole entry): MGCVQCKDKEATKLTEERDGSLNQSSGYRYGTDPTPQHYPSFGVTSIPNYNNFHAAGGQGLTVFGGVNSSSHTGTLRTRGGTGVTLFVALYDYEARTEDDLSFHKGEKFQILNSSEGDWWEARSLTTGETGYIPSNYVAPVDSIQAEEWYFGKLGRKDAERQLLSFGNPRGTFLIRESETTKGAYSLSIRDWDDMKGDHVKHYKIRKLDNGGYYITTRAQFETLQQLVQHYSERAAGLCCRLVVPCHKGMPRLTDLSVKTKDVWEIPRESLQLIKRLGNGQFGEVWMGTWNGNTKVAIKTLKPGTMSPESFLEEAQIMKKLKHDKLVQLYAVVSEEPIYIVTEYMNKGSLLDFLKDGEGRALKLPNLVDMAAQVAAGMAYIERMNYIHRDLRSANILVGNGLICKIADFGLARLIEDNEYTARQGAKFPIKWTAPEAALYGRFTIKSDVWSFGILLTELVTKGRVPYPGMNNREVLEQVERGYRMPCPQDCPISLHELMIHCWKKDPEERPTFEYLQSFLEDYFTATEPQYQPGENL

[12] = biological target: cAMP-dependent protein kinase catalytic subunit alpha (Homo sapiens, UniProt P17612); format: functional

Ki [3]	pKi [3]	Ki [4]	Ki [5]	pKi [5]	Ki [6]	pKi [6]	Ki [7]	pKi [7]	Ki [8]	pKi [8]	Ki [9]	pKi [9]	Ki [10]	pKi [10]	Ki [11]	Ki [12]	pKi [12]	Structure (SMILES)	IC50 [1]	AC50 [2]
–	–	–	–	–	–	–	–	–	–	–	–	–	–	–	–	–	–	O=C(COC(=O)c1ccc([N+](=O)[O-])s1)Nc1ccc(F)cc1	64.2 µM (inactive)	1.96 µM (active)
–	–	–	–	–	–	–	–	–	–	–	–	–	–	–	–	–	–	CCN(CC)CCCC(C)n1c2nc(=O)[nH]c(=O)c-2nc2cc(Cl)ccc21 (configuration not stated)	10.5 µM (inactive)	0.305 µM (active)
0.398 µM (active)	6.4	> 2 µM (inactive)	0.251 µM (active)	6.6	0.0126 µM (active)	7.9	0.0631 µM (active)	7.2	0.000794 µM (active)	9.1	0.00794 µM (active)	8.1	1 µM (active)	6	> 0.794 µM (inactive)	0.0316 µM (active)	7.5	OC1CCC(Nc2nc(Cl)cc(-c3c[nH]c4ncccc34)n2)CC1 (configuration not stated)	–	–
> 3.16 µM (inactive)	–	> 3.16 µM (inactive)	> 2.51 µM (inactive)	–	> 3.16 µM (inactive)	–	> 3.98 µM (inactive)	–	> 3.98 µM (inactive)	–	> 3.98 µM (inactive)	–	> 3.16 µM (inactive)	–	> 6.31 µM (inactive)	0.316 µM (active)	–	COc1cccc(CNC(=O)c2cnc(-c3ccncc3)nc2)c1	–	–
